Assay results reported in article PMC10544575, “Inhibitory mechanism of vortioxetine on CYP450 enzymes in human and rat liver microsomes” (Frontiers in Pharmacology, 2023).

Key:
Format in all cases: in vitro ADME
CYP2C-3 [1] = assay: IC50-shift experiment, CYP2C-3 in RLMs; details: rat, rat liver microsomes, probe mephenytoin; for IC50 at 30 min: mephenytoin 400 μM
Description: (§1) The components of the incubation system were as follows: 0.20 mg/mL HLMs or 0.20 mg/mL RLMs, 0.1 M Tris-HCl, vortioxetine, and the probe substrates of each enzyme. In the study of Km’s (Michaelis–Menten constant) experiment, midazolam (1, 2, 5, 10, 20, 50 and 100 μM in HLMs and RLMs) corresponded to CYP3A4/3A; bupropion (10, 20, 50, 100, 200, 500, 1,000 and 2000 μM in HLMs; 1, 2, 5, 10, 20, 50, 100 and 200 μM in RLMs) corresponded to CYP2B6/2B; amodiaquine (5, 10, 20, 50, 100 and 200 μM in HLMs; 10, 20, 50, 100, 200, 500 μM in RLMs) corresponded to CYP2C8/CYP2C-1; losartan (1, 2, 5, 10, 20, 50, 100, 200 μM in HLMs; 10, 20, 50, 100, 200, 500 and 1,000 μM in RLMs) corresponded to CYP2C9/CYP2C-2; mephenytoin (20, 50, 100, 200, 500 and 1,000 μM in HLMs; 5, 10, 20, 50, 100, 200, 500 and 1,000 μM in RLMs) corresponded to CYP2C19/CYP2C-3; and dextromethorphan (1, 2, 5, 10, 20, 50 and 100 μM in HLMs and RLMs) corresponded to CYP2D6/CYP2D. After 5.0 min of preincubation in the shaking water bath, the reaction was started with the addition of 1.0 mM NADPH. The incubated temperature at 37°C for 30 min. After the incubation, the enzyme reaction was stopped by cooling at −80°C, and 200 μL of acetonitrile and 20 μL of internal standard diazepam (200 ng/mL) were added for protein precipitation. […]
(§2) IC50-shift was used to investigate whether the drug produced time-dependent inhibition (TDI) of the enzyme. […] During the experiment, the individual substrates midazolam (4 μM), bupropion (40 μM), amodiaquine (3 μM), losartan (8 μM), mephenytoin (90 μM), and dextromethorphan (10 μM) were determined with vortioxetine IC50-shift in HLMs. […]
(§3) All experiments results were detected by UPLC-MS/MS, which equipped with a Waters Acquity UPLC system (Milford, MA, United States) and a Waters Xevo TQ-S triple quadrupole tandem mass spectrometer with an electrospray ionization source (Milford, MA, United States). […]
(§4) IC50 values and enzyme kinetic parameters were calculated by Graphpad Prism 6.0 (GraphPad software Inc., CA, United States). […] Data for each experiment were expressed as mean ± SD (n = 3).

CYP2C-3 [2] = assay: IC50 of vortioxetine on CYP2C-3 (mephenytoin) in RLMs; details: rat, rat liver microsomes, probe mephenytoin
Description: as §1, with “CYP2D6/CYP2D.” for “CYP2D6/CYP2D. After 5.0 min of preincubation in the shaking water bath, the reaction was started with the addition of 1.0 mM NADPH. The incubated temperature at 37°C for 30 min. After the incubation, the enzyme reaction was stopped by cooling at −80°C, and 200 μL of acetonitrile and 20 μL of internal standard diazepam (200 ng/mL) were added for protein precipitation.”
as §3, §4

CYP2C9 [3] = target: T1, CYP2C9 (Homo sapiens, UniProt P11712); assay: IC50-shift experiment, CYP2C9 in HLMs; design: 0.20 mg/mL HLMs or 0.20 mg/mL RLMs; from tissue; host or cells: human liver microsomes; details: for IC50: losartan 8 μM
Description: as §1, §2, §3, §4

CYP3A4 = CYP3A4 (Homo sapiens, UniProt P08684); assay: Reversible inhibition kinetics (Lineweaver-Burk), CYP3A4 in HLMs; design: 0.20 mg/mL HLMs; from tissue; host or cells: human liver microsomes; details: midazolam
Description: (§5) The components of the incubation system were as follows: 0.20 mg/mL HLMs or 0.20 mg/mL RLMs, 0.1 M Tris-HCl, vortioxetine, and the probe substrates of each enzyme. In the study of Km’s (Michaelis–Menten constant) experiment, midazolam (1, 2, 5, 10, 20, 50 and 100 μM in HLMs and RLMs) corresponded to CYP3A4/3A; bupropion (10, 20, 50, 100, 200, 500, 1,000 and 2000 μM in HLMs; 1, 2, 5, 10, 20, 50, 100 and 200 μM in RLMs) corresponded to CYP2B6/2B; amodiaquine (5, 10, 20, 50, 100 and 200 μM in HLMs; 10, 20, 50, 100, 200, 500 μM in RLMs) corresponded to CYP2C8/CYP2C-1; losartan (1, 2, 5, 10, 20, 50, 100, 200 μM in HLMs; 10, 20, 50, 100, 200, 500 and 1,000 μM in RLMs) corresponded to CYP2C9/CYP2C-2; mephenytoin (20, 50, 100, 200, 500 and 1,000 μM in HLMs; 5, 10, 20, 50, 100, 200, 500 and 1,000 μM in RLMs) corresponded to CYP2C19/CYP2C-3; and dextromethorphan (1, 2, 5, 10, 20, 50 and 100 μM in HLMs and RLMs) corresponded to CYP2D6/CYP2D. After 5.0 min of preincubation in the shaking water bath, the reaction was started with the addition of 1.0 mM NADPH. The incubated temperature at 37°C for 30 min. After the incubation, the enzyme reaction was stopped by cooling at −80°C, and 200 μL of acetonitrile and 20 μL of internal standard diazepam (200 ng/mL) were added for protein precipitation. The solution was fully vortexed and centrifuged at 13,000 × rpm for 10 min, and the supernatant was collected for data analysis by UPLC-MS/MS.
(§6) The inhibitory mechanism of the inhibitor on the enzyme was generally used by different concentrations of the inhibitor against different concentrations of the probe substrate. The concentrations of the inhibitor and the concentrations of probe substrates in the experiment were estimated based on IC50 and Km values, respectively.
(§7) In HLMs, the concentrations of the substrates midazolam, bupropion, amodiaquine, losartan, mephenytoin, and dextromethorphan were 1, 2, 4, 8 μM; 10, 20, 40, 80 μM; 0.8, 1.5, 3, 6 μM; 2, 4, 8, 16 μM; 20, 45, 90, 180 μM; 2.5, 5, 10, 20 μM, respectively. Corresponding to the concentration of vortioxetine were 2, 4, 9, 18 μM; 2, 4, 8, 16 μM; 4, 8, 15, 30 μM; 5, 10, 25, 50 μM; 0.6, 1.2, 2.5, 5 μM; 4.5, 9, 18, 36 μM, respectively.
as §3, with “States). The chromatographic separation was performed on a Waters ACQUITY UPLC BEH C18 column (2.1 × 50 mm, 1.7 μm, Waters Corp.) at 40°C.” for “States).”
as §4

CYP2C9 [4] = target: T1, CYP2C9; assay: Reversible inhibition kinetics (Lineweaver-Burk), CYP2C9 in HLMs; design: 0.20 mg/mL HLMs; from tissue; host or cells: human liver microsomes; details: losartan
Description: as §5, §6, §7
as §3, with “States). The chromatographic separation was performed on a Waters ACQUITY UPLC BEH C18 column (2.1 × 50 mm, 1.7 μm, Waters Corp.) at 40°C.” for “States).”
as §4

[5] = 30 min preincubation with 1.0 mM NADPH
[6] = 30 min preincubation without NADPH

Sequence of CYP3A4 (P08684 whole entry): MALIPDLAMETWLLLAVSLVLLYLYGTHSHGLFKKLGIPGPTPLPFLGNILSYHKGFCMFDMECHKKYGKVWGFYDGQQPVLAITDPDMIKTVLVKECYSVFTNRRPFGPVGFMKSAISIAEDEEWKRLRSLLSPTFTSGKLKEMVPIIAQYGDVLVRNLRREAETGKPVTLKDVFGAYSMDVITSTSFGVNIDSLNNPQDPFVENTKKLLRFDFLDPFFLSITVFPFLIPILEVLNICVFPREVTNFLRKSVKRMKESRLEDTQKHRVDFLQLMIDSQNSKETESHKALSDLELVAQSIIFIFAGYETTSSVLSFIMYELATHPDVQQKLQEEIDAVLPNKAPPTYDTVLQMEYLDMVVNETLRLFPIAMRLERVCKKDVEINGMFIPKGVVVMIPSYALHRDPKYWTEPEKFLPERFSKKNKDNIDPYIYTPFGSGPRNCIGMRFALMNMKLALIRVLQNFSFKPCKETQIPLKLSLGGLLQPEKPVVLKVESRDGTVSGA
T1 sequence (P11712 whole entry): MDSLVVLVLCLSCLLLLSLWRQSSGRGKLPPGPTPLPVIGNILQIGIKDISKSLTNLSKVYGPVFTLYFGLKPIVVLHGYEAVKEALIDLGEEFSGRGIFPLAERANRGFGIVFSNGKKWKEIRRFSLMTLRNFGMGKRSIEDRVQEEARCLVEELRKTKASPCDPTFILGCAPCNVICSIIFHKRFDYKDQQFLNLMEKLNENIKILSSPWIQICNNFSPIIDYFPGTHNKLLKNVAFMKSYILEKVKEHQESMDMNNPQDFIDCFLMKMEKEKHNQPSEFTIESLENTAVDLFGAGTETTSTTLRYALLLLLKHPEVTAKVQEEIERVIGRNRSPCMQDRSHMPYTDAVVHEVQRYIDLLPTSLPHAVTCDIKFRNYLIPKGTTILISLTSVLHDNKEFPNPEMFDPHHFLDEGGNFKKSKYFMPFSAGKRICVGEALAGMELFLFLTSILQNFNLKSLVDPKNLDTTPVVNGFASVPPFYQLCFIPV

Work on `Cc1ccc(Sc2ccccc2N2CCNCC2)c(C)c1` [vortioxetine] yielded an IC50 at 30 min (CYP2C-3 [1]; [5]) of 5.21 µM, an IC50 at 30 min (CYP2C-3 [1]; [6]) of 24.6 µM and an IC50 shift at 30 min (CYP2C-3 [1]; ratio IC50 (−) NADPH to IC50 (+) NADPH, read-out: IC50 fold shift) of 4.72. For the same compound, the IC50 at 30 min (CYP2C-3 [2]; RLMs 0.20 mg/mL, mephenytoin at Km, 37°C, 30 min, read-out: IC50) was 20.3 µM, the IC50 at 30 min (CYP2C-3 [2]; inhibitory effect (strength judged by IC50), RLMs) was > 10 µM and the IC50 (CYP2C9 [3]; [5]) was 16.7 µM. The IC50 (CYP2C9 [3]; [6]) was 18.6 µM, the IC50 shift at 30 min (CYP2C9 [3]; human, human liver microsomes, probe losartan (8 μM), ratio IC50 (−) NADPH to IC50 (+) NADPH, read-out: IC50 fold shift) was 1.11 and the Ki (CYP3A4) was 7.26 µM. The α (CYP3A4) was 0.94, the Inhibition type (CYP3A4; Lineweaver-Burk plot) was “noncompetitive inhibition” and the αKi (CYP3A4; secondary plot of y-intercepts) was 6.82 µM. For the same compound, the Ki (CYP2C9 [4]) was 4.17 µM, the α (CYP2C9 [4]) was 15.94 and the Inhibition type (CYP2C9 [4]; Lineweaver-Burk plot) was “mixed inhibition”. It also gave a αKi (CYP2C9 [4]; secondary plot of y-intercepts) of 66.5 µM.
